Results from ChEMBL document CHEMBL1201862, “PubChem BioAssay data set” (2004).
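Each compound was tested at five concentrations against cells in 96-well plates for 48 hours. At the GI50, growth is halved.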 Activity calls are given as the source filed them. No stated cut-off is given here; in the data, active = GI50 up to about 1.1 µM and inactive = higher.

What was measured:
Assay in all cases: inhibition of tumour cell growth, NCI panel, 48 h
U-251 = test system: U-251
HOP-62 = test system: HOP-62
UO-31 = test system: UO-31
BT-549 = test system: BT-549
SN12C = test system: SN12C
OVCAR-8 = test system: OVCAR-8
COLO 205 = test system: COLO 205
OVCAR-4 = test system: OVCAR-4
RXF 393 = test system: RXF 393
MDA-MB-231 = test system: MDA-MB-231
ACHN = test system: ACHN
SF-295 = test system: SF-295
HT-29 = test system: HT-29
NCI-H226 = test system: NCI-H226
OVCAR-3 = test system: OVCAR-3
HL-60 = test system: HL-60
SF-539 = test system: SF-539
NCI-H522 = test system: NCI-H522
TK-10 = test system: TK-10
MCF7 = test system: MCF7

Measured: GI50

O=C(O)/C=C\C(=O)Nc1ccccn1
inactive: U-251 > 100 µM | HOP-62 > 100 µM | UO-31 > 100 µM | BT-549 > 100 µM | SN12C > 100 µM | OVCAR-8 > 100 µM | COLO 205 > 100 µM | OVCAR-4 > 100 µM | RXF 393 > 100 µM | MDA-MB-231 > 100 µM | ACHN > 100 µM | SF-295 > 100 µM | HT-29 > 100 µM | NCI-H226 > 100 µM | OVCAR-3 > 100 µM | HL-60 > 100 µM | SF-539 > 100 µM | NCI-H522 > 100 µM

CC(=O)O[C@@H]1C(=O)N(c2ccccc2)[C@@H]1c1cc2ccccc2c2ccccc12
inactive: U-251 43.1 µM | HOP-62 29.6 µM | UO-31 22.2 µM | TK-10 30.9 µM | SN12C 34.4 µM | OVCAR-8 24.5 µM | COLO 205 16.7 µM | OVCAR-4 20.5 µM | RXF 393 15 µM | MDA-MB-231 20.3 µM | ACHN 29.6 µM | MCF7 34.2 µM | SF-295 38 µM | HT-29 29 µM | NCI-H226 7.1 µM | OVCAR-3 23.2 µM | HL-60 26.4 µM | SF-539 25.4 µM | NCI-H522 3.01 µM

O=c1cn[nH]c(=S)n1/N=C/c1c[nH]c2ccccc12
inactive: U-251 > 100 µM | HOP-62 49.3 µM | UO-31 > 100 µM | BT-549 72.6 µM | OVCAR-8 32.8 µM | COLO 205 > 100 µM | OVCAR-4 88.1 µM | ACHN > 100 µM | MCF7 45.7 µM | SF-295 > 100 µM | HT-29 > 100 µM | OVCAR-3 > 100 µM | HL-60 14.5 µM | SF-539 > 100 µM | NCI-H522 39.1 µM

Cc1ccc(C2(N3CCOCC3)OC(C)(C)c3cccc4cccc2c34)cc1 (stereo unspecified)
inactive: U-251 16.5 µM | HOP-62 15.7 µM | UO-31 16.9 µM | BT-549 17.3 µM | TK-10 17.3 µM | SN12C 16.9 µM | OVCAR-8 16.9 µM | COLO 205 15.9 µM | OVCAR-4 15.9 µM | RXF 393 15.3 µM | ACHN 16.3 µM | MCF7 16 µM | SF-295 16.9 µM | HT-29 15.5 µM | NCI-H226 17.1 µM | OVCAR-3 16 µM | HL-60 34.9 µM | SF-539 17.9 µM | NCI-H522 15.8 µM
